Assay results reported in US20110144079A1, “ANTIMICROBIAL SYSTEM” (priority 2008, published 2011).
Read-outs that look alike come from different tables or passages of the source. Marks after values point to notes of the source that are not given here.

Assays:
Type in all cases: cell-based
B. cenocepacia J2315 [1] = experiment: Broth microdilution MIC/MBC; conditions: Burkholderia cenocepacia; for MBC: B. cenocepacia J2315, 99.9% killing; for MIC: B. cenocepacia J2315, 24 h at 37° C.
How it was run: (§1)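 Cultures grown overnight in MHB were standardised by OD550 to 1×10^8 CFU/ml, then diluted to a final 2×10^5 CFU/ml. This inoculum was added to imidazolium salt dilutions spanning 0.0000625–1% w/v in MHB and incubated aerobically for 24 h at 37 °C. Wells without growth were plated on MHA for 24 h to find the MBC.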

C. tropicalis NCTC 7393 [2] = experiment: Broth microdilution MIC/MBC; conditions: Candida tropicalis, NCTC7393; for MBC: C. tropicalis NCTC 7393, 99.9% killing; for MIC: C. tropicalis NCTC 7393, 24 h at 37° C.
How it was run: as §1

E-MRSA 15 [3] = experiment: Broth microdilution MIC/MBC; conditions: for MBC: E-MRSA 15, 99.9% killing; for MIC: E-MRSA 15, 24 h at 37° C.
How it was run: as §1

E. coli NCTC 8196 = experiment: Broth microdilution MIC/MBC; conditions: Escherichia coli, NCTC8196; for MBC: E. coli NCTC 8196, 99.9% killing; for MIC: E. coli NCTC 8196, 24 h at 37° C.
How it was run: as §1

K. aerogenes NCTC 7427 [4] = experiment: Broth microdilution MIC/MBC; conditions: Klebsiella aerogenes, NCTC7427; for MBC: K. aerogenes NCTC 7427, 99.9% killing; for MIC: K. aerogenes NCTC 7427, 24 h at 37° C.
How it was run: as §1

P. aeruginosa PA01 [5] = experiment: Broth microdilution MIC/MBC; conditions: for MIC: P. aeruginosa PA01, 24 h at 37° C.; for MBC: P. aeruginosa PA01, 99.9% killing
How it was run: as §1

P. mirabilis NCTC 12442 [6] = experiment: Broth microdilution MIC/MBC; conditions: Proteus mirabilis, NCTC12442; for MBC: P. mirabilis NCTC 12442, 99.9% killing; for MIC: P. mirabilis NCTC 12442, 24 h at 37° C.
How it was run: as §1

S. aureus ATCC 29213 [7] = experiment: Broth microdilution MIC/MBC; conditions: Staphylococcus aureus, ATCC29213; for MBC: S. aureus ATCC 29213, 99.9% killing; for MIC: S. aureus ATCC 29213, 24 h at 37° C.
How it was run: as §1

B. cenocepacia J2315 [8] = experiment: Biofilm assay (Calgary Biofilm Device), MBEC; conditions: B. cenocepacia J2315 24 h biofilm, 24 h challenge
Protocol: (§2) Biofilms of each test organism were grown in the Calgary Biofilm Device (commercially available as the MBEC Assay™ for Physiology & Genetics, Innovotech Inc., Edmonton, Alberta, Canada). The device, a micro-titre plated based assay, consists of two parts; a microtitre plate containing the inoculated test medium and a polystyrene lid with 96 identical pegs on which the microbial biofilm forms under gyrorotary incubation. The biofilm assay was conducted according to the MBEC™ assay protocol as supplied by the manufacturer, with slight modifications. Inocula of each test organism were prepared in MHB as described above and adjusted to provide a final inoculum density of ˜10^7 CFU ml^−1 (as confirmed by viable count). 150 μl of the inoculated media was transferred to each well of the 96-well microtitre plate and the assay plate lid, bearing 96 pegs was placed into the microtitre plate. The MBEC assay plates were placed in a gyrorotary incubator (37° C., 95% relative humidity) for 24 h to permit growth and comparison of 24 h biofilms of each test strain. Positive and negative growth controls were included in each plate (6 replicates). Initial and 24 h planktonic viable counts were measured, as were 24 h biofilm counts, expressed as CFU peg^−1, according to manufacturers instructions. After 24 h, the peg lid of the MBEC assay plate was gently rinsed three times. After rinsing, the peg lid of the MBEC assay was transferred to a ‘challenge’ plate. Serial dilutions of each imidazolium salt were prepared in 200 μl of MHB containing various concentrations of IL in each well. Positive growth control and sterility control were included in each assay plate. […] Biofilms were dislodged into recovery media by sonication for 5 minutes and the peg lid discarded. The recovery plate is incubated overnight and visually checked after 24 h for turbidity. In addition, optical density measurements for each plate were recorded at 550 nm. Clear wells were taken as evidence of biofilm eradication and the MBEC value was assigned as the lowest concentration at which no growth was observed after 24 h incubation. Plates were incubated for a further 24 h to confirm biofilm eradication concentrations.

C. tropicalis NCTC 7393 [9] = experiment: Biofilm assay (Calgary Biofilm Device), MBEC; conditions: C. tropicalis NCTC 7393 24 h biofilm, 24 h challenge
Protocol: as §2

E-MRSA 15 [10] = experiment: Biofilm assay (Calgary Biofilm Device), MBEC; conditions: E-MRSA 15 24 h biofilm, 24 h challenge
Protocol: as §2

E. coli PIII = experiment: Biofilm assay (Calgary Biofilm Device), MBEC; conditions: for MBEC: E. coli PIII 24 h biofilm, 24 h challenge; for percent weight to volume of ionic liquid that corresponds to the MBEC value: E. coli PIII biofilm
Protocol: as §2

K. aerogenes NCTC 7427 [11] = experiment: Biofilm assay (Calgary Biofilm Device), MBEC; conditions: K. aerogenes NCTC 7427 24 h biofilm, 24 h challenge
Protocol: as §2

P. aeruginosa PA01 [12] = experiment: Biofilm assay (Calgary Biofilm Device), MBEC; conditions: for MBEC: P. aeruginosa PA01 24 h biofilm, 24 h challenge; for percent weight to volume of ionic liquid that corresponds to the MBEC value: P. aeruginosa PA01 biofilm
Protocol: as §2

P. mirabilis NCTC 12442 [13] = experiment: Biofilm assay (Calgary Biofilm Device), MBEC; conditions: P. mirabilis NCTC 12442 24 h biofilm, 24 h challenge
Protocol: as §2

S. aureus ATCC 29213 [14] = experiment: Biofilm assay (Calgary Biofilm Device), MBEC; conditions: S. aureus ATCC 29213 24 h biofilm, 24 h challenge
Protocol: as §2

[15] = tested on: S. epidermidis ATCC 35984; experiment: Biofilm assay (Calgary Biofilm Device), MBEC; conditions: for MBEC: S. epidermidis ATCC 35984 24 h biofilm, 24 h challenge; for percent weight to volume of ionic liquid that corresponds to the MBEC value: S. epidermidis ATCC 35984 biofilm
Protocol: as §2

[16] = Pseudomonas aeruginosa, PA01, 24 h, read-out: MIC

| MIC (B. cenocepacia J2315 [1]) | MIC (C. tropicalis NCTC 7393 [2]) | MIC (E-MRSA 15 [3]) | MIC (E. coli NCTC 8196) | MIC (K. aerogenes NCTC 7427 [4]) | MIC (P. aeruginosa PA01 [5]; [16]) | MIC (P. mirabilis NCTC 12442 [6]) | MIC (S. aureus ATCC 29213 [7]) | SMILES | MBC (B. cenocepacia J2315 [1]) | MBC (C. tropicalis NCTC 7393 [2]) | MBC (E-MRSA 15 [3]) | MBC (E. coli NCTC 8196) | MBC (K. aerogenes NCTC 7427 [4]) | MBC (P. aeruginosa PA01 [5]; Pseudomonas aeruginosa) | MBC (P. mirabilis NCTC 12442 [6]) | MBC (S. aureus ATCC 29213 [7]) | MBEC (B. cenocepacia J2315 [8]) | MBEC (C. tropicalis NCTC 7393 [9]) | MBEC (E-MRSA 15 [10]) | MBEC (E. coli PIII) | further results |
| --- | --- | --- | --- | --- | --- | --- | --- | --- | --- | --- | --- | --- | --- | --- | --- | --- | --- | --- | --- | --- | --- |
| 1290 µM | 321 µM | 40 µM | 321 µM | 643 µM | > 1290 µM | 1290 µM | 40 µM | CCCCCCCCCCn1cc[n+](C)c1.[Cl-] [C10MIMCl, 1-decyl-3-methylimidazolium chloride] | 1290 µM | 321 µM | 321 µM | 1290 µM | 1290 µM | > 1290 µM | 1290 µM | 643 µM | 19318 µM | 19318 µM | 1207 µM | 9659 µM | MIC (P. aeruginosa PA01 [5]; listed as 1-alkyl-3-methylimidazolium chlorides 10): 2415* μM; percent weight to volume of ionic liquid that corresponds to the MBEC value (E. coli PIII): (0.25) % w/v; MBEC (K. aerogenes NCTC 7427 [11]): 19318 µM; MBEC (P. aeruginosa PA01 [12]): 2415 µM; percent weight to volume of ionic liquid that corresponds to the MBEC value (P. aeruginosa PA01 [12]): (0.063) % w/v; MBEC (P. mirabilis NCTC 12442 [13]): 9659 µM; MBEC (S. aureus ATCC 29213 [14]): 2415 µM; MBEC [15]: 4829 µM; percent weight to volume of ionic liquid that corresponds to the MBEC value [15]: (0.125) % w/v |
| 290 µM | 73 µM | 18 µM | 73 µM | 73 µM | 580 µM | 580 µM | 18 µM | CCCCCCCCCCCCn1cc[n+](C)c1.[Cl-] [C12MIMCl, 1-dodecyl-3-methylimidazolium chloride] | 580 µM | 73 µM | 73 µM | 73 µM | 145 µM | 1160 µM | 1160 µM | 36 µM | 2179 µM | 8714 µM | 272 µM | 1089 µM | percent weight to volume of ionic liquid that corresponds to the MBEC value (E. coli PIII): (0.031) % w/v; MBEC (K. aerogenes NCTC 7427 [11]): 2179 µM; MBEC (P. aeruginosa PA01 [12]): 1089 µM; percent weight to volume of ionic liquid that corresponds to the MBEC value (P. aeruginosa PA01 [12]): (0.031) % w/v; MBEC (P. mirabilis NCTC 12442 [13]): 4357 µM; MBEC (S. aureus ATCC 29213 [14]): 272 µM; MBEC [15]: 272 µM; percent weight to volume of ionic liquid that corresponds to the MBEC value [15]: (0.008) % w/v |
| 132 µM | 66 µM | 16 µM | 33 µM | 33 µM | 264 µM | 264 µM | 16 µM | CCCCCCCCCCCCCCn1cc[n+](C)c1.[Cl-] [C14MIMCl, 1-tetradecyl-3-methylimidazolium chloride] | 264 µM | 132 µM | 66 µM | 33 µM | 66 µM | 264 µM | 530 µM | 66 µM | 496 µM | 248 µM | 248 µM | 124 µM | percent weight to volume of ionic liquid that corresponds to the MBEC value (E. coli PIII): (0.004 % w/v; MBEC (K. aerogenes NCTC 7427 [11]): 248 µM; MBEC (P. aeruginosa PA01 [12]): 496 µM; percent weight to volume of ionic liquid that corresponds to the MBEC value (P. aeruginosa PA01 [12]): (0.016 % w/v; MBEC (P. mirabilis NCTC 12442 [13]): 1984 µM; MBEC (S. aureus ATCC 29213 [14]): 124 µM; MBEC [15]: 124 µM; percent weight to volume of ionic liquid that corresponds to the MBEC value [15]: (0.004 % w/v |
